In the NIST ThermoML archive (doi:10.1021/acs.jced.8b00600):
± gives the expanded uncertainty stated by the source.

What was measured:
[1] = refractive index (Na D-line) (dimensionless); xn = mol fraction of the nth substance listed; settings: 313.15 K; 101.3 kPa; Liquid; Standard Abbe refractometry; x2 = 0.333
[2] = xn = mol fraction of the nth substance listed; settings: 313.15 K; 101.3 kPa; Liquid; Vibrating tube method; x2 = 0.333

## OCCCCCCO [1,6-hexanediol] + CCC[N+](CCC)(CCC)CCC.[Br-]
[1]
  refractive index: 1.47923 ± 0.002
[2]
  mass density: 1042.25 ± 2 kg/m3
